# According to patent US20120321637A1, “COMBINATION CANCER THERAPY WITH HERV INHIBITION” (The Board of Regents of the University of Texas System, priority 2011, published 2012):
# Key:
# A101D cell line = conditions: human, 48 h, 1000 µM
# Protocol: The A101D cell line was treated with various combinations of PD98059 (P), 219476 (C), and AZT (A) for 48hrs after which the MTS assay was done.
# CellTiter 96 Aqueous One Solution Cell Proliferation Assay (MTS, Promega) was used to measure total vial cells following manufacturer's instructions. 5,000 melanoma cells were seeded in each well of 96-well plates, and were grown for 24 hrs in media with 10% Fetal Bovine Serum (FBS). After that period, media were aspirated and various combinations of treatments were added to each well in media without serum. Based on dose-response analyses, the final concentrations used were: PD90895 at 25 μM; 219476 at 1 μM; AZT at 1000 μM. The plates were incubated for a period of 24 hrs, 48hrs, and 72 hrs, respectively. Then, the MTS solution was added to each well according to the manufacturers protocol. The plates were again incubated for 2-4 hrs, after which absorbance was measured at 490 nm. Data were analyzed and compared for treatment efficiency.
# [1] = test system: BRAF mutant metastatic melanomas; conditions: phase I clinical trial; cited from earlier work
# melanoma = conditions: monotherapy; cited from earlier work
compound,measurement,setting,value
Cc1cn([C@H]2C[C@H](N=[N+]=[N-])[C@@H](CO)O2)c(=O)[nH]c1=O [AZT],viability,A101D cell line,87.4%
CCCS(=O)(=O)Nc1ccc(F)c(C(=O)c2c[nH]c3ncc(-c4ccc(Cl)cc4)cc23)c1F [PLX4032],BRAF mutant metastatic melanomas regressed in response to treatment,[1],approximately 80%
"CNC(=O)c1cc(Oc2ccc(NC(=O)Nc3ccc(Cl)c(C(F)(F)F)c3)cc2)ccn1 [sorafenib, 4-[4-[[4-chloro-3-(trifluoromethyl)phenyl]carbamoylamino]phenoxy]-N-methyl-pyridine-2-carboxamide]",clinical benefit in melanoma patients,melanoma,only shows marginal clinical benefit
